Values joined by “and” are separate entries in the source; they are usually repeats but may differ in a detail not shown here. Equal values may be shown once. Read-outs that look alike come from different tables or passages of the source. Ends that are not written are not given here.
Columns and labels:
[1] = target: T1, hHgs 1-390 protein (Homo sapiens, UniProt O14964); test: biochemical
[2] = target: T1, hHgs 1-390 protein
[3] = tested on: MHV; parameters: species or system C57BL/6JGpt mice; conditions: in vivo
[4] = tested on: 17Cl-1 cells
[5] = tested on: MHV
[6] = tested on: M protein; test: BFA treatment and washout: ER export of M protein in 17Cl-1 cells; assay type: cell-based; conditions: for Colocalization of M protein with ERGIC53 / Colocalization of M protein with SEC61B: individual replicate values, Figure S5A; for ERGIC53 (colocalization value, Figure S5B) / SEC61B (colocalization value, Figure S5B): individual replicates
Protocol: 70–80% confluent 17Cl-1 cells were treated with 5 µg/mL final BFA (Catalog no #HY-
16592; MCE) for 40 min at 37°C. BFA was washed out by three brief rinses in PBS and
cells were then incubated at 37°C for 5 h before fixation with 4% PFA.

[7] = tested on: MHV; assay type: cell-based, mouse hepatitis virus (MHV); conditions: RTB 0 uM
[8] = in vitro; conditions: Vero E6 cells, cell viability, Figure S7F
[9] = tested on: Calu-3 cells
[10] = tested on: Vero E6 cells
[11] = in vitro; conditions: human, Calu-3 cells, cell viability, Figure S7G
[12] = in vitro; conditions: mouse, 17Cl-1 cells, cell viability, Figure S7E
[13] = tested on: SARS-CoV-2 Omicron BA.5; assay type: in vivo, K18-hACE2 C57BL/6 mice

T1 sequence (O14964 1-390): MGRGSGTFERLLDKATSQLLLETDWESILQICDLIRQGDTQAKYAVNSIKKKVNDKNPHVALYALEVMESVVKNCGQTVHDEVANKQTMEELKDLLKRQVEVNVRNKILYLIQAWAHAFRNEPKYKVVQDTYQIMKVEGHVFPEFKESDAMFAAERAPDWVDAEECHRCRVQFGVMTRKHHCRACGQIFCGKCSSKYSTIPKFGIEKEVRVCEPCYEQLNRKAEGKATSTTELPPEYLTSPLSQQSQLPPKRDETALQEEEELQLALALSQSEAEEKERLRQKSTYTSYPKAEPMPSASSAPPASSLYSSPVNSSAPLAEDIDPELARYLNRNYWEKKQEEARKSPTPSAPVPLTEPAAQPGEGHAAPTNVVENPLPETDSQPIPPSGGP

## COc1ccc(N)cn1 [5-amino-2-methoxypyridine]
[1]
  IC50: 3.41 µM
[2]; 0.00610352 uM
  Polarization: 137
[2]; 0.0244141 uM
  Polarization: 154 and 132
[2]; 0.0976562 uM
  Polarization: 127 and 143
[2]; 0.390625 uM
  Polarization: 133 and 129
[2]; 1.5625 uM
  Polarization: 103 and 111
[2]; 6.25 uM
  Polarization: 88 and 79
[2]; 25 uM
  Polarization: 61
[2]; 100 uM
  Polarization: 51 and 48

## GAIRLHGRLIVAGIVLESEQPPRRRQRRKKRG (also: D-retroinverso) [M161-DRI, M161 modified with d-retroinverso (DRI) isoform]
[3]
  readout per mouse, Figure S8P (quantity not given): 70 and 160 and 190 and 40 and 290 and 100
  score per mouse, Figure S8Q: 1 and 0
[3]; mouse, iv, 15 mg/kg
  lung injury (histology): alleviated
  viral gRNA in the lung: significantly decreased
  virus titer in the lung (plaque assay): significantly decreased

## COc1ccc(N)cn1 [5-amino-2 methoxypyridine]
[4]; concentration 0.01
  cell viability, Figures S9A, B, D-F: 100
[4]; concentration 0.03
  cell viability, Figures S9A, B, D-F: 100
[4]; concentration 0.1
  cell viability, Figures S9A, B, D-F: 100
[4]; concentration 0.3
  cell viability, Figures S9A, B, D-F: 100
[4]; concentration 1
  cell viability, Figures S9A, B, D-F: 100
[4]; concentration 3
  cell viability, Figures S9A, B, D-F: 100
[4]; concentration 10
  cell viability, Figures S9A, B, D-F: 100
[4]; concentration 25
  cell viability, Figures S9A, B, D-F: 103.896
[5]; concentration 10
  viability of infected cells (rescue of cytopathic effect), Figures S9G-L: 50.187 and 47.1573 and 49.7662
[5]; concentration 30
  viability of infected cells (rescue of cytopathic effect), Figures S9G-L: 52.4593 and 51.6738 and 47.1012
[5]; concentration 100
  viability of infected cells (rescue of cytopathic effect), Figures S9G-L: 53.2448 and 47.1573 and 49.2052
[5]; concentration 300
  viability of infected cells (rescue of cytopathic effect), Figures S9G-L: 49.4576 and 49.4296 and 47.5781
[5]; concentration 1000
  viability of infected cells (rescue of cytopathic effect), Figures S9G-L: 50.0187 and 48.055 and 47.0451
[5]; concentration 3000
  viability of infected cells (rescue of cytopathic effect), Figures S9G-L: 52.3191 and 51.9824 and 49.121
[5]; concentration 10000
  viability of infected cells (rescue of cytopathic effect), Figures S9G-L: 58.7432 and 53.4412 and 53.7217
[5]; concentration 25000
  viability of infected cells (rescue of cytopathic effect), Figures S9G-L: 59.3884 and 60.7069 and 59.0799

## C[C@H]1CCC/C=C/[C@@H]2C[C@H](O)C[C@H]2[C@H](O)/C=C/C(=O)O1 [BFA, Brefeldin A]
[6]; 5h BFA washout
  Colocalization of M protein with ERGIC53: 0.876 and 0.833 and 0.817
  Colocalization of M protein with SEC61B: 0.423 and 0.481 and 0.508
  ERGIC53 (colocalization value, Figure S5B): 0.399 and 0.424 and 0.407
  SEC61B (colocalization value, Figure S5B): 0.895 and 0.946 and 0.906
[6]; BFA treatment
  Colocalization of M protein with ERGIC53: 0.305 and 0.466 and 0.315
  Colocalization of M protein with SEC61B: 0.951 and 0.905 and 0.916
  ERGIC53 (colocalization value, Figure S5B): 0.418 and 0.389 and 0.288
  SEC61B (colocalization value, Figure S5B): 0.951 and 0.926 and 0.886
[6]; WT 17Cl-1 cells, 5 µg/mL BFA, 40 min
  ER export of M protein: effectively blocked

## CC(C)(C)[C@H](NC(=O)C(F)(F)F)C(=O)N1C[C@H]2[C@@H]([C@H]1C(=O)N[C@H](C#N)C[C@@H]1CCNC1=O)C2(C)C [nirmatrelvir]
[7]; nirmatrelvir 0.01 uM
  Inhibition, combination matrix (Figure S12D): -1.274
[7]; nirmatrelvir 0.03 uM
  Inhibition, combination matrix (Figure S12D): 3.148
[7]; nirmatrelvir 0.1 uM
  Inhibition, combination matrix (Figure S12D): 7.328
[7]; nirmatrelvir 0.3 uM
  Inhibition, combination matrix (Figure S12D): 49.1912
[7]; nirmatrelvir 1 uM
  Inhibition, combination matrix (Figure S12D): 73.8207
[7]; nirmatrelvir 3 uM
  Inhibition, combination matrix (Figure S12D): 76.6195
[7]; nirmatrelvir 10 uM
  Inhibition, combination matrix (Figure S12D): 79.1661
[7]; nirmatrelvir 25 uM
  Inhibition, combination matrix (Figure S12D): 76.9584

## GRKKRRQRRRPPQDYKDDDDK [FLAG]
[4]; peptide concentration 1000
  cell viability, Figure S7E: 98.8246 and 101.437
[4]; peptide concentration 4000
  cell viability, Figure S7E: 100.566 and 104.919
[4]; peptide concentration 8000
  cell viability, Figure S7E: 94.9064
[4]; peptide concentration 10000
  cell viability, Figure S7E: 94.471 and 89.2468
[4]; peptide concentration 20000
  cell viability, Figure S7E: 89.6822
[4]; peptide concentration 40000
  cell viability, Figure S7E: 87.0701 and 87.9408
[4]; peptide concentration 60000
  cell viability, Figure S7E: 91.4236 and 94.9064
[4]; peptide concentration 80000
  cell viability, Figure S7E: 90.9882 and 92.2943
[4]; peptide concentration 100000
  cell viability, Figure S7E: 101.001 and 93.6003
[4]; peptide concentration 200000
  cell viability, Figure S7E: 85.764
[8]; peptide concentration 1000
  viability at 24 h: 94.8%
[8]; peptide concentration 2000
  viability at 24 h: 101%
[8]; peptide concentration 4000
  viability at 24 h: 102%
[8]; peptide concentration 6000
  viability at 24 h: 106%
[8]; peptide concentration 8000
  viability at 24 h: 102%
[8]; peptide concentration 10000
  viability at 24 h: 105%
[8]; peptide concentration 50000
  viability at 24 h: 102%
[8]; peptide concentration 100000
  viability at 24 h: 105%
[8]; peptide concentration 400000
  viability at 24 h: 95.8%
[8]; peptide concentration 800000
  viability at 24 h: 101%
[9]; peptide concentration 1000
  cell viability, Figure S7G: 98.6281 and 97.5158
[9]; peptide concentration 5000
  cell viability, Figure S7G: 94.1787 and 96.4034
[9]; peptide concentration 10000
  cell viability, Figure S7G: 96.4034 and 97.8865
[9]; peptide concentration 20000
  cell viability, Figure S7G: 94.9203 and 96.4034
[9]; peptide concentration 40000
  cell viability, Figure S7G: 95.6618 and 97.5158
[9]; peptide concentration 60000
  cell viability, Figure S7G: 97.5158 and 96.0326
[9]; peptide concentration 80000
  cell viability, Figure S7G: 96.4034
[9]; peptide concentration 100000
  cell viability, Figure S7G: 97.8865
[9]; peptide concentration 400000
  cell viability, Figure S7G: 98.6281 and 97.5158
[9]; peptide concentration 800000
  cell viability, Figure S7G: 99.7405 and 96.0326
[10]; peptide concentration 1000
  cell viability, Figure S7F: 96.8531 and 94.4056
[10]; peptide concentration 2000
  cell viability, Figure S7F: 104.196 and 103.846
[10]; peptide concentration 4000
  cell viability, Figure S7F: 104.895
[10]; peptide concentration 6000
  cell viability, Figure S7F: 106.643 and 105.594
[10]; peptide concentration 8000
  cell viability, Figure S7F: 101.049 and 100.35
[10]; peptide concentration 10000
  cell viability, Figure S7F: 105.594
[10]; peptide concentration 50000
  cell viability, Figure S7F: 101.049 and 103.497
[10]; peptide concentration 400000
  cell viability, Figure S7F: 94.0559 and 93.7063
[10]; peptide concentration 800000
  cell viability, Figure S7F: 102.448
[11]; peptide concentration 1000
  viability at 24 h: 92%
[11]; peptide concentration 5000
  viability at 24 h: 88.6%
[11]; peptide concentration 10000
  viability at 24 h: 92%
[11]; peptide concentration 20000
  viability at 24 h: 89%
[11]; peptide concentration 40000
  viability at 24 h: 93.4%
[11]; peptide concentration 60000
  viability at 24 h: 90.5%
[11]; peptide concentration 80000
  viability at 24 h: 94.5%
[11]; peptide concentration 100000
  viability at 24 h: 94.2%
[11]; peptide concentration 400000
  viability at 24 h: 100%
[11]; peptide concentration 800000
  viability at 24 h: 96.8%
[12]; peptide concentration 1000
  viability at 24 h: 99.7%
[12]; peptide concentration 4000
  viability at 24 h: 102%
[12]; peptide concentration 8000
  viability at 24 h: 98%
[12]; peptide concentration 10000
  viability at 24 h: 97.5%
[12]; peptide concentration 20000
  viability at 24 h: 94%
[12]; peptide concentration 40000
  viability at 24 h: 78.8%
[12]; peptide concentration 60000
  viability at 24 h: 98.4%
[12]; peptide concentration 80000
  viability at 24 h: 84.5%
[12]; peptide concentration 100000
  viability at 24 h: 88.8%
[12]; peptide concentration 200000
  viability at 24 h: 84.9%

## CC(C)C(=O)OC[C@H]1O[C@@H](n2ccc(NO)nc2=O)[C@H](O)[C@@H]1O [Molnupiravir]
[13]; mouse, in vivo
  Survival curves: per-mouse event code: 0
  body weight relative to start (Figure 5N): 100
  pathological severity scores, lung tissues: 2 and 1
[13]; time 3
  body weight relative to start (Figure 5N): 98.8156 and 99.095 and 100.646 and 100.079 and 100.862 and 100.376 and 98.4711 and 101.287
[13]; time 5
  body weight relative to start (Figure 5N): 100.79 and 100.302 and 100.727 and 102.248 and 100.911 and 101.609 and 100.096 and 100.919
[13]; time 8
  body weight relative to start (Figure 5N): 102.338 and 103.472 and 103.062 and 103.016 and 101.448 and 100.239 and 100.322
[13]; time 10
  body weight relative to start (Figure 5N): 102.338 and 103.472 and 103.062 and 103.016 and 101.448 and 100.239 and 100.322
[7]; Molnupiravir 0.01 uM
  Inhibition, combination matrix (Figure S12C): -6.464
[7]; Molnupiravir 0.03 uM
  Inhibition, combination matrix (Figure S12C): -1.441
[7]; Molnupiravir 0.1 uM
  Inhibition, combination matrix (Figure S12C): -1.4813
[7]; Molnupiravir 0.3 uM
  Inhibition, combination matrix (Figure S12C): 3.455
[7]; Molnupiravir 1 uM
  Inhibition, combination matrix (Figure S12C): 0.7848
[7]; Molnupiravir 3 uM
  Inhibition, combination matrix (Figure S12C): 9.711
[7]; Molnupiravir 10 uM
  Inhibition, combination matrix (Figure S12C): 41.7804
[7]; Molnupiravir 25 uM
  Inhibition, combination matrix (Figure S12C): 66.457

From paper PMC12948427 (The Journal of Clinical Investigation, 2025)
